Measurements taken from patent US10259810B2, “N-sulfonylated pyrazolo[3,4-b]pyridin-6-carboxamides and method of use” (AbbVie S.à.r.l., priority 2015, dated 2019).

Tests used:
ΔF508-CFTR [1] = biological target: T1, ΔF508-CFTR (Homo sapiens, UniProt P13569, DEL508-508); assay: CFTR cell surface levels using HRP-tagged ΔF508-CFTR expressing CFBE cells, in the presence of a co-corrector; assay type: cell-based
T1 construct: host or cells: CFBE41o-, doxycycline-inducible
Method in brief: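 Chemiluminescent read-out of surface HRP (15 min, dark) after PBS washes. Activity is normalized as 100×(sample−DMSO)/(3 μM co-corrector alone−DMSO).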

ΔF508-CFTR [2] = biological target: T1, ΔF508-CFTR; assay: CFTR cell surface levels using HRP-tagged ΔF508-CFTR expressing CFBE cells, intrinsic corrector capacity; assay type: cell-based; set-up: % Activation: concentration or dose not given beside the values
Method in brief: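 Surface ΔF508-CFTR was measured as HRP chemiluminescence from an extracellular-loop-4 tag, expressed as percent activity between DMSO and a […] corrector control.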

[3] = HRP-tagged ΔF508-CFTR CFBE cells, in the presence of 3 μM co-corrector
[4] = HRP-tagged ΔF508-CFTR CFBE cells, in the presence of 3 μM co-corrector, read-out: EC50
[5] = HRP-tagged ΔF508-CFTR expressing CFBE41o- cells, compound alone (intrinsic corrector capacity), 20 hours at 33° C.
[6] = HRP-tagged ΔF508-CFTR expressing CFBE41o- cells, compound alone (intrinsic corrector capacity), 20 hours at 33° C., read-out: EC50

T1 sequence (P13569 with tags, fused parts or gaps DEL508-508): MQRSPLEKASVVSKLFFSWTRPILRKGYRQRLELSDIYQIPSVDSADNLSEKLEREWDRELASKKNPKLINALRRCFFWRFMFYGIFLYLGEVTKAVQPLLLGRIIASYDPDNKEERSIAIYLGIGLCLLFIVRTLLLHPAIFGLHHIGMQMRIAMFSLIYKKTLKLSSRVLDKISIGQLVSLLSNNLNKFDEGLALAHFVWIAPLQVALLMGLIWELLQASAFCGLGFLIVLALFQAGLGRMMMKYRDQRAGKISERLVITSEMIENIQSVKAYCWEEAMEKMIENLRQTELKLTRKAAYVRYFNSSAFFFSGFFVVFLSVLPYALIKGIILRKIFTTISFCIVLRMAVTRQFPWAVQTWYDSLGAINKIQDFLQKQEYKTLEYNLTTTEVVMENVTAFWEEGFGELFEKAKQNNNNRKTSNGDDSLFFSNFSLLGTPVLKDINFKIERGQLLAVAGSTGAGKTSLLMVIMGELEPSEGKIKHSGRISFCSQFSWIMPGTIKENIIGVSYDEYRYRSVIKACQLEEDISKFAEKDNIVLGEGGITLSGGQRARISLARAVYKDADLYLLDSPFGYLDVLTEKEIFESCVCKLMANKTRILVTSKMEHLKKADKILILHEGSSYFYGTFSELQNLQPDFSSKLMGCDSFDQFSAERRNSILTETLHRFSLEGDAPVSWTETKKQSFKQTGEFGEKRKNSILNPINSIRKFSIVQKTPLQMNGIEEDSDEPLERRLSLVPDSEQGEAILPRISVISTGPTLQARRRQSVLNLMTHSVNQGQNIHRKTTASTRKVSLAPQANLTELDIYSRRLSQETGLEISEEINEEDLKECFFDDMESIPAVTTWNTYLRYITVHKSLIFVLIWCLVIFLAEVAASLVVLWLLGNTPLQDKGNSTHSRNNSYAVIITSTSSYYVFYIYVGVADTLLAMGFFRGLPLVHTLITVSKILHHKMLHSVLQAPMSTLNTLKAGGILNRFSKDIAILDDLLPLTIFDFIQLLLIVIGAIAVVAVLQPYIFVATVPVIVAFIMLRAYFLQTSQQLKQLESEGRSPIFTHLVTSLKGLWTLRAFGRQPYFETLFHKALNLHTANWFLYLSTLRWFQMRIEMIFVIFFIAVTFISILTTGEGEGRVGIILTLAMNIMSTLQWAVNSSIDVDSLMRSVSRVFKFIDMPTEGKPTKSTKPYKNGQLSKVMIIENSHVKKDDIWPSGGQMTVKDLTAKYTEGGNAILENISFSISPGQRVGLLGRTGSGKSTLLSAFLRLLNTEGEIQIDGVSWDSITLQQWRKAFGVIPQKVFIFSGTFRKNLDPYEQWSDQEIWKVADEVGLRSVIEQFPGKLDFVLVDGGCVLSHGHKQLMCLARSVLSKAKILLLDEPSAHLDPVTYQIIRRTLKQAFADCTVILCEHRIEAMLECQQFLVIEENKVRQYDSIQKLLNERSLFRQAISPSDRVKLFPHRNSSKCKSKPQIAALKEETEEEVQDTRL

| SMILES | % Activation (ΔF508-CFTR [1]; [3]) | EC50 (ΔF508-CFTR [1]; [4]) | % Activation (ΔF508-CFTR [2]; [5]) | EC50 (ΔF508-CFTR [2]; [6]) | EC50 (ΔF508-CFTR [1]) | EC50 (ΔF508-CFTR [2]) |
| --- | --- | --- | --- | --- | --- | --- |
| CC(C)Oc1nn(C2CCCCC2)c2nc(C(=O)NS(C)(=O)=O)cc(-c3ccc(CN4CC5CN(C)CC5C4)cc3)c12 (centres unmarked) [Compound 636, 1-cyclohexyl-N-(methanesulfonyl)-4-{4-[(5-methylhexahydropyrrolo[3,4-c]pyrrol-2(1H)-yl)methyl]phenyl}-3-[(propan-2-yl)oxy]-1H-pyrazolo[3,4-b]pyridine-6-carboxamide] | 388.85% | 434 nM | 182.7% | 573 nM |  |  |
| COCC1CCN(c2cc(C(=O)NS(=O)(=O)CC(C)C)nc3c2c(C2CCC2)nn3-c2ccccc2)CC1 [Compound 375, 3-cyclobutyl-4-[4-(methoxymethyl)piperidin-1-yl]-N-(2-methylpropane-1-sulfonyl)-1-phenyl-1H-pyrazolo[3,4-b]pyridine-6-carboxamide] | 546.75% | 241 nM | 321.6% | 571 nM |  |  |
| CC(C)Oc1nn(C2CCCCC2)c2nc(C(=O)NS(C)(=O)=O)cc(-c3ccc(C(=O)N4CCC(N(C)C)CC4)cc3)c12 [Compound 544, 1-cyclohexyl-4-{4-[4-(dimethylamino)piperidine-1-carbonyl]phenyl}-N-(methanesulfonyl)-3-[(propan-2-yl)oxy]-1H-pyrazolo[3,4-b]pyridine-6-carboxamide] | 344.9% | 2000 nM | 135.3% | 3330 nM |  |  |
| CC(C)c1nn(C2CCCCC2)c2nc(C(=O)NS(C)(=O)=O)cc(-c3ccc(N4CCC(F)(F)C4)nc3)c12 [Compound 64, 1-cyclohexyl-4-[6-(3,3-difluoropyrrolidin-1-yl)pyridin-3-yl]-N-(methanesulfonyl)-3-(propan-2-yl)-1H-pyrazolo[3,4-b]pyridine-6-carboxamide] | 362.45% | 444 nM | 152.75% | 935 nM |  |  |
| CN(C(=O)c1cc(N2CCC(N3CCOCC3)CC2)c2c(C3CCC3)nn(-c3ccccc3)c2n1)S(C)(=O)=O [Compound 656, 3-cyclobutyl-N-(methanesulfonyl)-N-methyl-4-[4-(morpholin-4-yl)piperidin-1-yl]-1-phenyl-1H-pyrazolo[3,4-b]pyridine-6-carboxamide] | 289.68% |  | 102.63% |  |  |  |
| COCCS(=O)(=O)NC(=O)c1cc(N2CCC(N3CCCCC3)CC2)c2c(C3CCC3)nn(-c3ccc(F)cc3)c2n1 [Compound 488, 4-([1,4'-bipiperidin]-1'-yl)-3-cyclobutyl-1-(4-fluorophenyl)-N-(2-methoxyethanesulfonyl)-1H-pyrazolo[3,4-b]pyridine-6-carboxamide] | 488.15% | 683 nM | 246.55% | 655 nM |  |  |
| COC[C@@H]1CCCN1C1CCN(S(=O)(=O)NC(=O)c2cc(N3CCC(N4CCOCC4)CC3)c3c(C4CCC4)nn(-c4ccccc4)c3n2)CC1 [Compound 439, 3-cyclobutyl-N-{4-[(2S)-2-(methoxymethyl)pyrrolidin-1-yl]piperidine-1-sulfonyl}-4-[4-(morpholin-4-yl)piperidin-1-yl]-1-phenyl-1H-pyrazolo[3,4-b]pyridine-6-carboxamide] | 374.6% | 381 nM | 166.8% | 550 nM |  |  |
| CCN(C)S(=O)(=O)NC(=O)c1cc(N2CCC(N3CCOCC3)CC2)c2c(C3CCC3)nn(-c3ccc(F)cc3)c2n1 [Compound 483, 3-cyclobutyl-N-[ethyl(methyl)sulfamoyl]-1-(4-fluorophenyl)-4-[4-(morpholin-4-yl)piperidin-1-yl]-1H-pyrazolo[3,4-b]pyridine-6-carboxamide] | 438.2% | 56.1 nM | 212.7% | 84.9 nM |  |  |
| CCS(=O)(=O)NC(=O)c1cc(-c2ccc(N3CCOCC3)cc2)c2c(C(C)C)nn(-c3ccc(F)c(F)c3)c2n1 [Compound 223, 1-(3,4-difluorophenyl)-N-(ethanesulfonyl)-4-[4-(morpholin-4-yl)phenyl]-3-(propan-2-yl)-1H-pyrazolo[3,4-b]pyridine-6-carboxamide] | 438.2% | 371 nM | 258.95% | 469 nM |  |  |
| O=C(NS(=O)(=O)C1COC1)c1cc(N2CCC(N3CCOCC3)CC2)c2c(C3CCC3)nn(-c3ccc(F)cc3)c2n1 [Compound 506, 3-cyclobutyl-1-(4-fluorophenyl)-4-[4-(morpholin-4-yl)piperidin-1-yl]-N-(oxetane-3-sulfonyl)-1H-pyrazolo[3,4-b]pyridine-6-carboxamide] | 308.95% | 941 nM | 144.1% | 3330 nM |  |  |
| CC(C)Oc1nn(-c2ccccc2)c2nc(C(=O)NS(=O)(=O)C3CC3)cc(-c3ccc(N4CCOCC4)cc3)c12 [Compound 225, N-(cyclopropanesulfonyl)-4-[4-(morpholin-4-yl)phenyl]-1-phenyl-3-[(propan-2-yl)oxy]-1H-pyrazolo[3,4-b]pyridine-6-carboxamide] | 427.95% | 579 nM | 215.35% | 456 nM |  |  |
| CC(C)c1nn(-c2cccc(N3CCCC3)c2)c2nc(C(=O)NS(C)(=O)=O)cc(-c3ccc(N4CCOCC4)cc3)c12 [Compound 16, N-(methanesulfonyl)-4-[4-(morpholin-4-yl)phenyl]-3-(propan-2-yl)-1-[3-(pyrrolidin-1-yl)phenyl]-1H-pyrazolo[3,4-b]pyridine-6-carboxamide] | 649.9% | 459 nM | 469.75% | 543 nM |  |  |
| O=C(NS(=O)(=O)CCO)c1cc(N2CCC(CCN3CCOCC3)CC2)c2c(C3CCC3)nn(-c3ccc(F)cc3)c2n1 [Compound 491, 3-cyclobutyl-1-(4-fluorophenyl)-N-(2-hydroxyethanesulfonyl)-4-{4-[2-(morpholin-4-yl)ethyl]piperidin-1-yl}-1H-pyrazolo[3,4-b]pyridine-6-carboxamide] | 490.9% | 488 nM | 204.5% | 248 nM |  |  |
| O=C(NS(=O)(=O)CCCN1CCOCC1)c1cc(N2CCC[C@@H](CO)C2)c2c(C3CCC3)nn(-c3ccccc3)c2n1 [Compound 350, 3-cyclobutyl-4-[(3R)-3-(hydroxymethyl)piperidin-1-yl]-N-[3-(morpholin-4-yl)propane-1-sulfonyl]-1-phenyl-1H-pyrazolo[3,4-b]pyridine-6-carboxamide] | 274.6% |  | 104.21% |  | 287 nM | 357 nM |
| CN(C)S(=O)(=O)NC(=O)c1cc(CN2CCC(N3CCOCC3)CC2)c2c(C3CCC3)nn(-c3ccc(F)cc3)c2n1 [Compound 595, 3-cyclobutyl-N-(dimethylsulfamoyl)-1-(4-fluorophenyl)-4-{[4-(morpholin-4-yl)piperidin-1-yl]methyl}-1H-pyrazolo[3,4-b]pyridine-6-carboxamide] | 231.9% | 1430 nM | 58.87% | 1520 nM |  |  |
| CN1CCCN(C(=O)c2cc(N3CCC(CN4CCCC4)CC3)c3c(C4CCC4)nn(-c4ccccc4)c3n2)S1(=O)=O [Compound 660, 2-(3-cyclobutyl-1-phenyl-4-{4-[(pyrrolidin-1-yl)methyl]piperidin-1-yl}-1H-pyrazolo[3,4-b]pyridine-6-carbonyl)-6-methyl-1λ^6,2,6-thiadiazinane-1,1-dione] | 172.1% | 235 nM | 34.92% | 932 nM |  |  |
